Results on 8 compounds are retold here after patent US8207344B2, “GPR119 agonists” (Eli Lilly and Company, priority 2009, dated 2012).

The target in one data set is T1, human GPR119 (Homo sapiens, UniProt Q8TDV5).
T1 construct: expressed in transfected cells
T1 sequence (Q8TDV5 1-335): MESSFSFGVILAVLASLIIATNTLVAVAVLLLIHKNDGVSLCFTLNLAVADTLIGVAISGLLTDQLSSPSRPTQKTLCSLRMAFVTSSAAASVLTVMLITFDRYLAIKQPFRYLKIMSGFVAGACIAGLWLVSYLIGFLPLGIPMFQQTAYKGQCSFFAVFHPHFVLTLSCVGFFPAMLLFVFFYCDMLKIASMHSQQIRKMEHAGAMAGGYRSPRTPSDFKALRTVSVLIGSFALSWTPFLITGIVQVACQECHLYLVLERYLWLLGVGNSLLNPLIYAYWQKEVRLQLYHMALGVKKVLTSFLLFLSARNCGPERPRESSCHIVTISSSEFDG
The data set is described as follows: Human GPR119 activity assay (cAMP HTRF in 293 T-REx cells expressing hGPR119). The data set is classed as cell-based. The note with it: 293 T-REx cells expressing hGPR119, cAMP HTRF, 1 h incubation; read-out: EC50 (agonist concentration that gives 50% activation of the hGPR119 mediated cAMP increase). The protocol: A stable cell line expressing human GPR119 off an inducible promoter is generated in 293 T-REx™ cells (Invitrogen). T-REx™ (Tetracycline-Regulated Expression) cell line stably expresses the tetracycline repressor protein and, therefore, allow for inducible expression of the gene of interest (GPR119) with doxycycline. Agonists to the human GPR119 receptor are characterized by measuring increases in the cAMP levels in 293 T-REx™ cells expressing hGPR119. 10,000 cells/well are seeded into a 96-well plate and cultured for 24 h in DMEM supplemented with 10% fetal bovine serum, 15 μg/mL Blasticidin and 200 μg/mL Hygromycin B. Next day, cells are stimulated with 1 ng/mL Doxycycline in DMEM with no further addition of Hygromycin B and Blasticidin. cAMP assay is performed after 18 h incubation with doxycycline. cAMP is determined using the cAMP HiRange HTRF assay (Cisbo International). Cells are washed with PBS and pre-incubated for 15 min with PBS supplemented with 2 mM glucose, 0.25 mM IBMX and 0.1% BSA. Test compounds diluted in the pre-incubation buffer are added and cells are further incubated at room temperature for 1 h. Incubation is stopped by addition of HTRF reagents diluted in the lysis buffer, followed by incubation for 1 h and measurements of fluorescence at […]. The potency of the agonists is determined as the agonist concentration that gives 50% activation of the hGPR119 mediated cAMP increase (EC50).

A further data set deals with total GIP. The data set is described as follows: Mouse Gastric Inhibitory Polypeptide (GIP) assay. The data set is classed as in vivo. The note with it: male C57BL/6 mice, 0.5-6 h. The procedure:
Male C57BL/6 mice (8-10 weeks of age, n=20/dose level, n=5/time point) are fasted overnight (16 hr), weighed the following morning, and then orally dosed with vehicle (1% HEC) or various doses of test article at 5 mL/kg. Animals are euthanized by CO2 asphyxiation for 1 minute, and then blood is collected by cardiac puncture at various times (0.5, 1.5, 3, and 6 h post compound dose) into EDTA plasma tubes containing 10 μL/mL DPP4 inhibitor (Millipore, DPP4-010) and 1.1×10^5 KIU/mL aprotinin. Blood samples are kept on ice until plasma is separated by centrifugation at 3000×g for 5 min. Resulting plasma samples are placed into 96-well plates and stored at −20° C. until analyzed. Measurements of total GIP (measured by Millipore kit EZRMGIP-55K) are performed for each time-point. For each treatment group, the AUC for GIP is determined by applying the trapezoid rule to the timepoint-specific average GIP levels. Potencies were estimated using piecewise linear interpolation across the collection of calculated GIP AUCs above vehicle from a dose response study. Compound potency is defined as the dose and/or concentration of compound that yielded an increase of 350 pg*hr/mL above the vehicle group GIP AUC over the timecourse of the experiment.

Another data set relates to GLUTag cells. The data set is described as follows: Glucagon-like peptide 1 secretion in GLUTag cells. The settings on record: Mus musculus, 2 h at 37 C, 5 mM glucose, read-out: EC50 (agonist concentration that gives 50% increase in GLP-1). The data set is classed as cell-based, murine. The procedure:
Effects of GPR119 agonists on glucagon-like peptide 1 (GLP-1) secretion are determined in vitro in GLUTag cells. GLUTag cells are an immortalized murine intestinal enteroendocrine cell line that express the preproglucagon gene and secrete GLP-1 in a regulated manner (Brubaker P L, Schloos J, Drucker D J. Regulation of glucagon-like peptide-1 synthesis and secretion in the GLUTag enteroendocrine cell line. Endocrinology. 1998 139:4108-14). To measure GLP-1 secretion, 15,000 cells/well are seeded in 96-well-plate and incubated for 3 days in DMEM supplemented with 10% FBS and 1% Glutamine. On the day of the experiment, cells are washed twice with the incubation buffer, EBSS supplemented with 5 mM glucose and 0.1% BSA. 150 μL of the incubation buffer containing test compounds is added to each well and cells are incubated at 37° C. for 2 h. After incubation, the supernatant is collected and filtered using 96-well-filter-plates. GLP-1 content in the filtrate is determined with the Mouse/Rat Total GLP-1 Assay (Meso Scale Discovery). The potency of the GPR119 agonists to stimulate GLP-1 secretion is determined as the agonist concentration that gives 50% increase in GLP-1 (EC50).

Data set [1] in a line: Oral bioavailability in Beagle dogs. The class given is in vivo. The settings on record: dog, plasma, 1 mg/kg IV, 3 mg/kg oral gavage. From the text:
(§1) Methods for accessing oral bioavailability are well appreciated in the art. One such reference is Medicinal Research Reviews Vol 21 No. 5 382-396 (2001). The oral bioavailability of compounds of the present invention may be estimated essentially as follows.
(§2) Cohorts of three 250-400 gram male Sprague-Dawley rats or approximately 10 kg Beagle dogs (female or male) are used. […] Dogs are IV administered the compounds by cannulated cephalic vein and blood collections are by jugular vein. Animals are first IV dosed at 1 mg/kg and blood samples (0.1 to 0.2 mL) are then collected using EDTA as an anticoagulant at 0.0830, 0.25, 0.50, 1, 2, 4, 8, 12, and 24 h. After at least two days and overnight fasting, the animals are dosed at 3 mg/kg by oral gavage. Blood samples (0.1 to 0.2 mL) are then collected using EDTA as an anticoagulant at 0.25, 0.50, 1, 2, 4, 6, 8, 12, and 24 h. During the course of a study the total of blood (mL) collected is not to exceed 1% of total body weight in grams.
(§3) Compound plasma concentrations are measured by LC/MS/MS assays. Data are then analyzed using standard non-compartmental pharmacokinetic analysis. Oral bioavailability is calculated as: (AUC0-inifinity, oral/AUC0-inifinity, IV)×(Dose, IV./Dose, oral)×100%

In the next data set the test system is plasma glucose. The data set is described as follows: Mouse Oral Glucose Tolerance Test (OGTT). The class given is in vivo, C57BL/6 mice. The protocol: Normal C57BL/6 mice are fasted overnight, randomized into groups (n=6) and orally dosed with vehicle (1% HEC, 0.25% tween 80, 0.05% antifoam) or 0.9, 2, 6 and 18 mg/kg GPR119 agonist suspended in vehicle. 30 minutes after the compound is administered, mice are dosed orally with a 50% dextrose solution at 3 g/kg. At various times (0, 20, 40, or 60 minutes post glucose), the mice are restrained in cotton gloves or paper towels and 1 mm or less of the tail is cut. A small drop of blood is placed onto Accu-Chek® glucometers (Roche model 22-044217) for glucose measurements. Three glucometers are used to read glucose in each collected sample, with the median value being reported as the final glucose value. Area under the plasma glucose curve (glucose AUC) is calculated for each group and the percentage decrease in the glucose AUC versus the control group is used as a measure of efficacy of the compound to decrease plasma glucose.

The test system of data set [2] is Diet-Induced Obese (DIO) mice. The data set can be described thus: Chronic treatment of Diet-Induced Obese (DIO) mice. The data set is classed as in vivo, C57/BL6 mice. The note with it: 30 mg/kg once daily, 3 weeks. The protocol: DIO male C57/BL6 mice are maintained on a calorie-rich diet and have free access to food and water for at least 2 weeks before randomization into groups by weight (n=8) and treatment. Animals are individually housed in a temperature-controlled (24° C.) facility with 12 hour light, 12 hour dark cycle. Body weights range from 34-40 g. Mice are administrated once daily vehicle (1% HEC), 30 mg/kg GPR119 agonist, 30 mg/kg DPPIV inhibitor or a combination of 30 mg/kg GPR119 agonist and 30 mg/kg DPPIV inhibitor. Treatment continues for 3 weeks. Food and body weights are recorded daily before dark photoperiod. Cumulative body weight change is calculated as the daily body weight minus body weight before treatment for each animal and presented as an average for the group. Food intake is measured daily for each animal and combined with the total amount of food consumed by that animal from all previous days to yield cumulative food intake, which is then averaged for the group. At the end of the study OGTT is performed after overnight fasting.

Data set [3] in a line: Oral bioavailability in Sprague-Dawley rats. The class given is in vivo. The note with it: male, rat, plasma, 1 mg/kg IV, 3 mg/kg oral gavage.
Text: as §1, §2, §3

Setting [4] is: oral dosing 30 min before 3 g/kg dextrose, normal C57BL/6 mice.

In the case of `CC(Oc1ccc(C2=CCN(S(C)(=O)=O)CC2)cc1)C1CCN(CC(C)(C)F)CC1` (single isomer, unassigned) [Example 8, 4-(4-{1-[1-(2-Fluoro-2-methyl-propyl)-piperidin-4-yl]-ethoxy}-phenyl)-1-methanesulfonyl-1,2,3,6-tetrahydro-pyridine], the EC50 on human GPR119 is 1.1 nM.
The same measure, in the same setting: the figure for `CS(=O)(=O)N1CC=C(c2ccc(OCC3CCN(CC4(F)CCCC4)CC3)cc2)CC1` [Example 1, 4-{4-[1-(1-Fluoro-cyclopentylmethyl)-piperidin-4-ylmethoxy]-phenyl}-1-methanesulfonyl-1,2,3,6-tetrahydro-pyridine] is 4.61 nM.
In the case of `CC(C)(CN1CCC(COc2ccc(C3=CCN(S(C)(=O)=O)CC3)nc2)CC1)C(F)(F)F` [Example 3, 1′-Methanesulfonyl-5-[1-(3,3,3-trifluoro-2,2-dimethyl-propyl)-piperidin-4-ylmethoxy]-1′,2′,3′,6′-tetrahydro-[2,4′]bipyridinyl], in the data set on total GIP (10 mg/kg oral dose), the “increase in GIP AUC over vehicle” value turned out to be 762 pg·h/mL.
The bioavailability is the share of a dose that reaches the circulation, judged against a reference dose that is usually intravenous. The low end stands for little systemic uptake, the high end for much systemic uptake. In general, ED50 refers to the dose at which the effect has come halfway, by size or by number of responders. For `CC(C)(F)CN1CCC(COc2ccc(C3=CCN(S(C)(=O)=O)CC3)nc2)CC1` [Example 6, 5-[1-(2-Fluoro-2-methyl-propyl)-piperidin-4-ylmethoxy]-1′-methanesulfonyl-1′,2′,3′,6′-tetrahydro-[2,4′]bipyridinyl], the EC50 on human GPR119 worked out at 0.95 nM. Besides, the EC50 with GLUTag cells came to 62.7 nM. The same compound showed a bioavailability in data set [1] of 90%. Also, the “increase in GIP AUC over vehicle” value in the data set with total GIP (1.6 mg/kg oral dose) is 422 pg·h/mL. For the same compound, the ED50 in the data set with plasma glucose (Mus musculus, oral, doses 0.9, 2, 6 and 18 mg/kg, normal C57BL/6 mice, read-out: ED50 (dose which produces a 50% decrease in glucose area under the curve)) came out at 0.4 mg/kg. Also, in the data set with plasma glucose (setting [4]), the glucose tolerance entry is reported as “improved glucose tolerance” and the postprandial plasma glucose result is reported as “significantly decreased”. Moreover, the fasting plasma glucose result in the data set on plasma glucose (oral dosing, normal C57BL/6 mice fasted overnight) is reported as “did not influence”. Besides, in data set [2], the body weight result is “mild decrease” and the food intake entry is listed as “mild decrease”. Also, the plasma glucose levels result in data set [2] (OGTT at end of study) is recorded as “did not significantly modify”.
`CC(C)(F)CN1CCC(COc2ccc(C3=CCN(S(C)(=O)=O)CC3)cc2F)CC1` [Example 7, 4-{3-Fluoro-4-[1-(2-fluoro-2-methyl-propyl)-piperidin-4-ylmethoxy]-phenyl}-1-methanesulfonyl-1,2,3,6-tetrahydro-pyridine]: the EC50 on human GPR119 was 2.13 nM.
On to `CC(F)(F)CN1CCC(COc2ccc(C3=CCN(S(C)(=O)=O)CC3)cc2)CC1` [Example 9, 4-{4-[1-(2,2-Difluoro-propyl)-piperidin-4-ylmethoxy]-phenyl}-1-methanesulfonyl-1,2,3,6-tetrahydro-pyridine], for which the EC50 in the data set on GLUTag cells stood at 36.8 nM.
Take `CS(=O)(=O)N1CC=C(c2ccc(OCC3CCN(CC4(C(F)(F)F)CC4)CC3)cc2)CC1` [Example 10, 1-Methanesulfonyl-4-{4-[1-(1-trifluoromethyl-cyclopropylmethyl)-piperidin-4-ylmethoxy]-phenyl}-1,2,3,6-tetrahydro-pyridine]: the EC50 on human GPR119 is 0.95 nM. This compound returned a bioavailability in data set [3] of 53%. For the same compound, the “increase in GIP AUC over vehicle” value in the data set with total GIP (10 mg/kg oral dose) is 762 pg·h/mL.
For `N[C@@H](CC(=O)N1CCn2c(nnc2C(F)(F)F)C1)Cc1cc(F)c(F)cc1F` [Sitagliptin, sitagliptin, reference compound], in data set [2], the body weight entry was “did not alter” and the food intake entry is reported as “did not alter”.
